From patent publication EP4678638A1, “NEW E3 UBIQUITIN LIGASE LIGAND, PROTEIN DEGRADATION AGENT AND USE THEREOF” (priority 2023, dated 2024)
Where two headings read alike, the source gives them in different places. Blank lines part the entries; values can stand above or below the compound they belong to.

Legend:
[1] = system: TRK; assay: Western blot degradation of TRK / NTRK (SK-N-AS Cell); format: cell-based; conditions: Table D14
Procedure: (§1) Conventional Western blot assay was performed to evaluate the effects of the compounds of the present disclosure on the expression of target proteins in cells.
(§2) (1) Cell Seeding and Protein Harvesting: The selected cells were processed according to the cell seeding procedure and protein harvesting procedure in Table III-2. Table III-2 Cell Seeding and Protein Harvesting Procedures
(§3) (2) To the collected supernatant, 5X SDS sample loading buffer was added, followed by denaturation at 95°C for 5 minutes. The denatured samples were then separated by SDS-PAGE electrophoresis on a polyacrylamide gel. Proteins were transferred to a nitrocellulose membrane (0.45 µm NC membrane), blocked with blocking buffer at room temperature for 1 hour, and subjected to antibody incubation and development procedures according to the antibody manufacturer's instructions (Cell Signaling Technology).
(§4) Half-Maximal Degradation Concentration value (the drug concentration required for degrading proteins by 50%, abbreviated as DC50) reads method: comparing the grayscale values of Western blot bands from drug-treated samples with those from blank DMSO-treated controls, and identifying the drug concentration range at which the grayscale value is half that of the DMSO-treated control bands.
(§5) DC50 values can be calculated using ImageJ software to measure grayscale values of Western blot bands from drug-treated samples. The concentration-response curve is fitted to estimate the drug concentration corresponding to half the grayscale value.
(§6) Target protein remaining (%) refers to the percentage of target protein remaining in hPBMC cells after treatment with protein degrader compounds.
(§7) Calculation method for target protein remaining (%): Use ImageJ software to measure grayscale values of Western blot bands from drug (protein degrader)-treated samples. The grayscale value of drug-treated bands is divided by that of internal control protein bands, and the resulting quotient is normalized to obtain the relative percentage of remaining target protein after protein degrader treatment. […]

[2] = target: T1, AR (Homo sapiens, UniProt P10275+Q96SW2, T878A); assay: Western blot degradation of AR (LnCap Cell); format: cell-based; conditions: Table D11
T1 construct: evaluate the effects of the compounds of the present disclosure on the expression of target proteins in cells; endogenous in cells; host or cells: LnCap
T1 sequence (P10275 whole entry T878A): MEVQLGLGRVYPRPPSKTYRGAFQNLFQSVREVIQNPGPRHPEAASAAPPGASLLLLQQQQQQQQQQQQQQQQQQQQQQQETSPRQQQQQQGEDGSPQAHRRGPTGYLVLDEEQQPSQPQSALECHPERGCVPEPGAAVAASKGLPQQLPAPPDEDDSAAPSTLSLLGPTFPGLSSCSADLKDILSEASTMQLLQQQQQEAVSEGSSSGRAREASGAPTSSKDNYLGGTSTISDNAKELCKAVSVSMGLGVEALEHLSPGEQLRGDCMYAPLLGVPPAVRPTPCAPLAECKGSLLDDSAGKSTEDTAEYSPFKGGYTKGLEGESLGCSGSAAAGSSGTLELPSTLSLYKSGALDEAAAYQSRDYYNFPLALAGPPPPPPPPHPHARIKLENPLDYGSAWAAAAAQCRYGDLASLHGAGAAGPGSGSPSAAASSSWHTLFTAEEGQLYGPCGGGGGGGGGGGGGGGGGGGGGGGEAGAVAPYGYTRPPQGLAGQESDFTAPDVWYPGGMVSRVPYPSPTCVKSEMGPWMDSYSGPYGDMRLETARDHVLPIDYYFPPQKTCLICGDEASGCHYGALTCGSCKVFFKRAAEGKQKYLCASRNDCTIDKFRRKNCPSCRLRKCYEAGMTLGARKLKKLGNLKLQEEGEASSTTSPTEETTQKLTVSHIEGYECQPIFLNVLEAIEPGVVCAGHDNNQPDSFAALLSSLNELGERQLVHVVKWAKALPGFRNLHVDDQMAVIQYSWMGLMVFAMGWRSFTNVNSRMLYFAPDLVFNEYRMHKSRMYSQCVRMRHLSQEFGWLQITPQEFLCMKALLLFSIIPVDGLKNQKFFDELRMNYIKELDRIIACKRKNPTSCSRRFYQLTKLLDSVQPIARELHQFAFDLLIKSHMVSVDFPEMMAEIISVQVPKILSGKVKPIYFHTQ
T1 sequence (Q96SW2 whole entry): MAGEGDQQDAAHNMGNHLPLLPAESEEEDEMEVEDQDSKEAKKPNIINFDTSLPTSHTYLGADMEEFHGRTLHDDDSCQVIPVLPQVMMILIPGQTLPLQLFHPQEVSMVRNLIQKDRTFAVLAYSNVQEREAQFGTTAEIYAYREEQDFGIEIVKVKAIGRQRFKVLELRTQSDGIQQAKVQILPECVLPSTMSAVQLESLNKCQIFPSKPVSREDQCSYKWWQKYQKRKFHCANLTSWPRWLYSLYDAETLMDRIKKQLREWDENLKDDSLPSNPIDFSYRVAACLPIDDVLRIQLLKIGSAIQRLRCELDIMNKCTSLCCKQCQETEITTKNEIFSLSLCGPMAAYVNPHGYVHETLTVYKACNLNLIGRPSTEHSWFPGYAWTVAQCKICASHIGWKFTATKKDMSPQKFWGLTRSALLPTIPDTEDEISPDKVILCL
T1 sequence (Q16531 whole entry partner): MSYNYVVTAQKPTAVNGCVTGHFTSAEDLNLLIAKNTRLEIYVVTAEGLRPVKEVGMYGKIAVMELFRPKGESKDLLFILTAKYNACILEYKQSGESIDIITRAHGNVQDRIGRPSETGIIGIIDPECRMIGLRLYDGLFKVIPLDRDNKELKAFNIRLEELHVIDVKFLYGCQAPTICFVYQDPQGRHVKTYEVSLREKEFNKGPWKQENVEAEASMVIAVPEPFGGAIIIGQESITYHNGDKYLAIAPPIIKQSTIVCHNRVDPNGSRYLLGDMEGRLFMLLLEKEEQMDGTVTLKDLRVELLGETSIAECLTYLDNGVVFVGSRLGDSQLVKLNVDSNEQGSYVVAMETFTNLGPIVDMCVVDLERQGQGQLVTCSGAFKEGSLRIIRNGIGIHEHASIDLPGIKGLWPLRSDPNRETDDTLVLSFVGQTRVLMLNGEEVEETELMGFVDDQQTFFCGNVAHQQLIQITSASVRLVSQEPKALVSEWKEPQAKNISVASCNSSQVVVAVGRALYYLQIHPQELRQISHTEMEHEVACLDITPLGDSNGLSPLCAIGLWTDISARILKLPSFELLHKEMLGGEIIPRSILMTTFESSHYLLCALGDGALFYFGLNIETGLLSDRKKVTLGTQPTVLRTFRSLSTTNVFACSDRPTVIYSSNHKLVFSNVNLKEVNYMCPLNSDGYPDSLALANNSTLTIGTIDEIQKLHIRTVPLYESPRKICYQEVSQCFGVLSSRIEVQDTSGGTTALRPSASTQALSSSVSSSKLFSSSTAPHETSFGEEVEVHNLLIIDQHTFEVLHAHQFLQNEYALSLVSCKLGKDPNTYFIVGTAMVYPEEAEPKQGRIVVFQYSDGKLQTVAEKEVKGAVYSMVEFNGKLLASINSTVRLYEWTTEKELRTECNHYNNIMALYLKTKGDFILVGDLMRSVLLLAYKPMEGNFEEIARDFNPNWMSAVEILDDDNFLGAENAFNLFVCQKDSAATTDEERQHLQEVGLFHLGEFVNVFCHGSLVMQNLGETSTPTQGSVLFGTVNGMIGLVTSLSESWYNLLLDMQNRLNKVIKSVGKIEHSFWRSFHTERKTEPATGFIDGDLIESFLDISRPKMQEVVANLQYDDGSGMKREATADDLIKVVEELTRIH
Procedure: as §1, §2, §3, §4
DC50 values can be calculated using ImageJ software to measure grayscale values of Western blot bands from drug-treated samples. […]

[3] = system: DU-145; assay: CCK-8 proliferation, DU-145; format: cell-based; conditions: Homo sapiens, 96 hours, read-out: Inhibitory activity (IC50) on tumor cell proliferation, DU-145
How it was run: (§8)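 Tumor cells were cultured at 37°C with 5% CO2, seeded, and after 24h treated with compounds at 10 concentrations starting at 10µM (5-fold serial dilutions).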

[4] = system: BXPC-3; assay: CCK-8 proliferation, BXPC-3; format: cell-based; conditions: Homo sapiens, 96 hours, read-out: Inhibitory activity (IC50) on tumor cell proliferation, BXPC-3
Procedure: (§9) The tumor cells used herein were cultured in a cell culture medium listed in table A1 at 37°C in an incubator with 5% CO2. Prior to experimentation, all cell lines used were correctly identified by STR profiling, and tested negative for mycoplasma contamination using a mycoplasma detection kit through routine screenings. Table A1. Tumor cells and cell culture medium used in the present disclosure
(§10) IC50 values of the compounds of the present disclosure (including the compounds in Table 1, and compounds of examples) were measured using the Meilun Cell Counting Kit-8 kit from Dalian Meilun Biotech Co., Ltd. Assay details are as follows: tumor cells were seeded in a 96-well plate at a density listed in Table A2. After 24h, 100 µL of the inoculated cells were treated with 0.5µL of the compounds of the present disclosure (including the compounds in Tables 1 and 2, and compounds of examples) at 10 different successively decreasing concentrations (starting at the highest concentration of 10µM; 5-fold serial dilutions). After the cells were treated with the compounds of the present disclosure for a period of time, the cell viability detection reagent was added to the culture medium for cell viability assessment according to the instructions provided with the CCK-8 kit. […] The growth inhibition of the compounds of the present disclosure on cells was plotted by Prism Graphpad software, and the IC50 values of the compounds of the present disclosure were calculated therefrom. […] Seeding protocol and treatment time for tumor cells

[5] = target: T2, human Cereblon WT GST-tagged protein (Homo sapiens, UniProt Q96SW2); assay: CRBN binding, HTRF (CEREBLON BINDING kit); conditions: Table II-2, CRBN binding screening, HTRF; for inhibition at 0.5 µM: read-out: Inhibition rate (%) at 0.5µM; for inhibition at 2 µM: read-out: Inhibition rate (%) at 2 µM
T2 construct: purchased CISBIO 64BDCRBNPEH
T2 sequence (Q96SW2 whole entry): as the sequence (Q96SW2 whole entry) above
How it was run: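 Competitive HTRF: GST-tagged human WT Cereblon mixed with compound, Thalidomide-Re tracer and GST Eu antibody, incubated 3 h at room temperature. Signals read at 620 and 665 nm.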

[6] = system: H520; assay: CCK-8 proliferation, H520; format: cell-based; conditions: Homo sapiens, NCI-H520, 96 hours, read-out: Inhibitory activity (IC50) on tumor cell proliferation, H520
Procedure: as §9, §10

[7] = system: THP-1; assay: CCK-8 proliferation, THP-1; format: cell-based; conditions: Homo sapiens, 72 hours, read-out: Inhibitory activity (IC50) on tumor cell proliferation, THP-1
How it was run: as §8

[8] = system: SW620; assay: CCK-8 proliferation, SW620; format: cell-based; conditions: Homo sapiens, SW-620; CCK-8; 96 hours; read-out: Inhibitory activity (IC50) on tumor cell proliferation, SW620
How it was run: as §8

[9] = system: MGC-803; assay: CCK-8 proliferation, MGC-803 (heads: MGC80-3, MGC803); format: cell-based, Human; conditions: Homo sapiens, MGC-803, CCK-8, 72 hours
How it was run: as §8

[10] = system: Jurkat; assay: CCK-8 proliferation, Jurkat; format: cell-based, Human; conditions: Homo sapiens, Jurkat; CCK-8; 96 hours; read-out: Inhibitory activity (IC50) on tumor cell proliferation, Jurkat
How it was run: as §8

[11] = system: CAL-62; assay: CCK-8 proliferation, CAL-62; format: cell-based; conditions: Homo sapiens, 72 hours, read-out: Inhibitory activity (IC50) on tumor cell proliferation, CAL-62
Procedure: as §9, §10

[12] = system: Vcap; assay: CCK-8 proliferation, Vcap; format: cell-based; conditions: Homo sapiens, 96 hours, read-out: Inhibitory activity (IC50) on tumor cell proliferation, Vcap
Procedure: as §9
IC50 values of the compounds of the present disclosure (including the compounds in Table 1, and compounds of examples) were measured using the Meilun Cell Counting Kit-8 kit from Dalian Meilun Biotech Co., Ltd. Assay details are as follows: tumor cells were seeded in a 96-well plate at a density listed in Table A2. After 24h, 100 µL of the inoculated cells were treated with 0.5µL of the compounds of the present disclosure (including the compounds in Tables 1 and 2, and compounds of examples) at 10 different successively decreasing concentrations (starting at the highest concentration of 10µM; 5-fold serial dilutions). […] The growth inhibition of the compounds of the present disclosure on cells was plotted by Prism Graphpad software, and the IC50 values of the compounds of the present disclosure were calculated therefrom. […]

[13] = system: CCRF-CEM; assay: CCK-8 proliferation, CCRF-CEM; format: cell-based, Human; conditions: Homo sapiens, CCRF-CEM; CCK-8; 96 hours; read-out: Inhibitory activity (IC50) on tumor cell proliferation, CCRF-CEM
How it was run: as §8

[14] = target: T3, BCR-ABL (Homo sapiens, UniProt P00519+P11274+Q96SW2, E27K); assay: Western blot degradation of BCR-ABL (K562 Cell); format: cell-based; conditions: Table D15
T3 construct: evaluate the effects of the compounds of the present disclosure on the expression of target proteins in cells; endogenous in cells; host or cells: K562
T3 sequence (P11274+P00519 fused, stated change not applied): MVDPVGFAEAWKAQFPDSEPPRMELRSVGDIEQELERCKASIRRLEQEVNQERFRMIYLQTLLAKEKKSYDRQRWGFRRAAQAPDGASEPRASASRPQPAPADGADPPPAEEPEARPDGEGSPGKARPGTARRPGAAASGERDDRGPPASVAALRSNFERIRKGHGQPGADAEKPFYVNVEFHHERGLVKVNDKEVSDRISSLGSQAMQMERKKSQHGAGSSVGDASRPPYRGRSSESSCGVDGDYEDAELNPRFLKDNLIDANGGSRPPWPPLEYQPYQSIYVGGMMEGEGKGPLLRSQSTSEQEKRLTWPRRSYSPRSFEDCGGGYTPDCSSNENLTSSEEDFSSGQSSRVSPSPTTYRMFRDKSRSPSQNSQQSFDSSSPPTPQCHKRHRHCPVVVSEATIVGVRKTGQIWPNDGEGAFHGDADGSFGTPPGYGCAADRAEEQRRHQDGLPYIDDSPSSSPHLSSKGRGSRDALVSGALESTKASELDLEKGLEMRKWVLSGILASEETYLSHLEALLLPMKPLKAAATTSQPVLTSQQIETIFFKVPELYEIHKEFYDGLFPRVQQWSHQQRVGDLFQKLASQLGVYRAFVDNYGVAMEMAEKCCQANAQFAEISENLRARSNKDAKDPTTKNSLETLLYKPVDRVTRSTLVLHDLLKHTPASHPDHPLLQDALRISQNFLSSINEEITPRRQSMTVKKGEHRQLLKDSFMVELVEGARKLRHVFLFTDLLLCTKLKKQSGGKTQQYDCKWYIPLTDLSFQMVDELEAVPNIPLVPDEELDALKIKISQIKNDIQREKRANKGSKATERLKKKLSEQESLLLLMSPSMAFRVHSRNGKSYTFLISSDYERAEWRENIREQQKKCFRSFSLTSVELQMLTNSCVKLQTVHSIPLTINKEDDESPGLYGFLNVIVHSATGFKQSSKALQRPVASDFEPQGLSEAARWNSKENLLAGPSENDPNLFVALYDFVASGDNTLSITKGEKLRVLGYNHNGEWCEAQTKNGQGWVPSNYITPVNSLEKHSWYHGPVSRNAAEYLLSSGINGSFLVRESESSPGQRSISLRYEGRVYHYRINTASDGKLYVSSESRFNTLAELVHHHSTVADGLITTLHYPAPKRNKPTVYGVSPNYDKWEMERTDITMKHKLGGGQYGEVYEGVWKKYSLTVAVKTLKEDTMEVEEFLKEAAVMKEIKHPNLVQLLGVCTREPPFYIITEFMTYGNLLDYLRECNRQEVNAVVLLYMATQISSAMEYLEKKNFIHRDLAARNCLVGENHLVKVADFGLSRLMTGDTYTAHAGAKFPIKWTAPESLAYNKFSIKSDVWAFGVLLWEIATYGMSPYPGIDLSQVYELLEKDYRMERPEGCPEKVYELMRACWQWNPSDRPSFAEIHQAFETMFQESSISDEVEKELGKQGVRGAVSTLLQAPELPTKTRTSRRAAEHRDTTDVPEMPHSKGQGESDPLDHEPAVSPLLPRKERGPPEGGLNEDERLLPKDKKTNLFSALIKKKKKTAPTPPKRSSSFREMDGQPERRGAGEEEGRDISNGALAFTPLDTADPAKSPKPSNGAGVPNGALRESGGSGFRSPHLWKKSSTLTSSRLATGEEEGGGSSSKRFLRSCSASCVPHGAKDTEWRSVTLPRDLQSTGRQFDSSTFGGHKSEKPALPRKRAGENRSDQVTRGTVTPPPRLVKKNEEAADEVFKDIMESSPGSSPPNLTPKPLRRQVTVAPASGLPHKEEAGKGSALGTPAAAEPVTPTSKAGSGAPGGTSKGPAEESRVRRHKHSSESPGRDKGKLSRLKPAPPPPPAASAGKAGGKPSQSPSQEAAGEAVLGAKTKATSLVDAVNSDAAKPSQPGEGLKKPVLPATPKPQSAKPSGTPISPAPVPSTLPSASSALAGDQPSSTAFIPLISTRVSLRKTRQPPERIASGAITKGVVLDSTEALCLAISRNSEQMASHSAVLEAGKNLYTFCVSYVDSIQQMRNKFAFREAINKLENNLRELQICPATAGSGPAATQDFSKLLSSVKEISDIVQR
T3 sequence (Q16531 whole entry, stated change not applied, further chain): as the sequence (Q16531 whole entry partner) above
T3 sequence (Q96SW2 whole entry, stated change not applied): as the sequence (Q96SW2 whole entry) above
Procedure: as §1, §2, §3, §4, §5, §6, §7

[15] = system: CFPAC-1; assay: CCK-8 proliferation, CFPAC-1; format: cell-based; conditions: Homo sapiens, 72 or 96 hours, read-out: Inhibitory activity (IC50) on tumor cell proliferation, CFPAC-1
Procedure: as §9, §10

[16] = system: LNcap; assay: CCK-8 proliferation, LNcap; format: cell-based; conditions: Homo sapiens, LNCaP; CCK-8; 96 hours; read-out: Inhibitory activity (IC50) on tumor cell proliferation, Lncap
How it was run: as §8

[17] = read-out: Inhibitory activity (IC50) on tumor cell proliferation, MGC803

- IC50 [3]: 500 to 1000 nM
Compound: Cc1ccc(-c2c(C)noc2C)cc1N(CC1CCN(Cc2ccc(N3CCC(=O)NC3=O)cn2)CC1)c1ccc(C2(C#N)CC2)cc1 [GT-06411, 1-(4-((5-(3,5-dimethylisoxazol-4-yl)-2-methylphenyl)((1-((5-(2,4-dioxotetrahydropyrimidin-1(2H)-yl)pyridin-2-yl)methyl)piperidin-4-yl)methyl)amino)phenyl)cyclopropane-1-carbonitrile]
- Degradation of substrate protein AR (substrate protein remaining %) [2]: A (A is defined as 0% ≤ substrate protein remaining % ≤ 80%)

- IC50 [4]: 500 to 1000 nM
- inhibition at 0.5 µM [5]: 20 to 30%
- inhibition at 2 µM [5]: 60 to 80%
- IC50 [6]: 500 to 1000 nM
- IC50 [7]: 500 to 1000 nM
Compound: Cn1cc(-c2cc(S(C)(=O)=O)ccc2OCc2cccc(NC3CCC(=O)NC3=O)c2)c2cc[nH]c2c1=O (stereo not shown) [GT-04641, 3-((3-((2-(6-methyl-7-oxo-6,7-dihydro-1H-pyrrolo[2,3-c]pyridin-4-yl)-4-(methylsulfonyl)phenoxy)methyl)phenyl)amino)piperidine-2,6-dione]
- Degradation of substrate protein AR (substrate protein remaining %) [2]: A (A is defined as 0% ≤ substrate protein remaining % ≤ 80%)

- inhibition at 0.5 µM [5]: 60 to 80%
- inhibition at 2 µM [5]: 80 to 100%
Compound: CN(Cc1ccc(C2CCC(=O)NC2=O)cc1)C1CCN(c2cccc(-c3cnc4ccc(N5CCC[C@@H]5c5cccc(F)c5)nn34)n2)CC1 (stereo partly drawn) [GT-03898, 3-(4-(((1-(6-(6-((R)-2-(3-fluorophenyl)pyrrolidin-1-yl)imidazo[1,2-b]pyridazin-3-yl)pyridin-2-yl)piperidin-4-yl)(methyl)amino)methyl)phenyl)piperidine-2,6-dione]
- Degradation of substrate protein TRK (substrate protein remaining %) [1]: A (A is defined as 0% ≤ substrate protein remaining % ≤ 80%)

- IC50 [10]: 100 to 500 nM
- IC50 [12]: 500 to 1000 nM
- IC50 [13]: 100 to 500 nM
Compound: O=C1CCC(c2ccc(CN3CCN(c4ccc([C@@H]5c6ccc(O)cc6CC[C@@H]5c5ccccc5)cc4)CC3)cc2)C(=O)N1 (stereo partly drawn) [GT-03856, 3-(4-((4-(4-((1R,2S)-6-hydroxy-2-phenyl-1,2,3,4-tetrahydronaphthalen-1-yl)phenyl)piperazin-1-yl)methyl)phenyl)piperidine-2,6-dione]
- IC50 [11]: 100 to 500 nM

The remaining lines, values behind:

Compound: CN(Cc1ccc(C2CCC(=O)NC2=O)c(F)c1)C1CCN(c2ccc(C(=O)Nc3n[nH]c4ccc(Cc5cc(F)cc(F)c5)cc34)c(NC3CCOCC3)c2)CC1 (stereo not shown) [GT-03965, N-(5-(3,5-difluorobenzyl)-1H-indazol-3-yl)-4-(4-((4-(2,6-dioxopiperidin-3-yl)-3-fluorobenzyl)(methyl)amino)piperidin-1-yl)-2-((tetrahydro-2H-pyran-4-yl)amino)benzamide]
- Degradation of substrate protein TRK (substrate protein remaining %) [1]: A (A is defined as 0% ≤ substrate protein remaining % ≤ 80%)

Compound: CN(Cc1ccc(C2CCC(=O)NC2=O)cc1)C1CCN(c2ccc(C(=O)Nc3n[nH]c4ccc(Cc5cc(F)cc(F)c5)cc34)c(NC3CCOCC3)c2)CC1 (stereo not shown) [GT-03964, N-(5-(3,5-difluorobenzyl)-1H-indazol-3-yl)-4-(4-((4-(2,6-dioxopiperidin-3-yl)benzyl)(methyl)amino)piperidin-1-yl)-2-((tetrahydro-2H-pyran-4-yl)amino)benzamide]
- Degradation of substrate protein TRK (substrate protein remaining %) [1]: A (A is defined as 0% ≤ substrate protein remaining % ≤ 80%)

Compound: O=C1CC[C@H](N2Cc3cc(N4CCN(CC5CCN(c6ccc([C@@H]7c8ccc(O)cc8CC[C@@H]7c7ccccc7)cc6)CC5)CC4)ccc3C2=O)C(=O)N1 [ARV-471, reference compound]
- IC50 [8]: 1000 to 5000 nM
- IC50 ([9]; read-out: Inhibitory activity (IC50) on tumor cell proliferation, MGC80-3): > 10000 nM
- IC50 [10]: > 10000 nM
- IC50 [11]: > 10000 nM
- IC50 [12]: > 10000 nM
- IC50 [13]: > 10000 nM

Compound: O=C1CCC(c2ccc(CN3CCC(N4CCN(c5ncc(C(=O)Nc6ccc(OC(F)(F)Cl)cc6)cc5-c5cc[nH]n5)CC4)CC3)cc2)C(=O)N1 (stereo not shown) [GT-04058, N-(4-(chlorodifluoromethoxy)phenyl)-6-(4-(1-(4-(2,6-dioxopiperidin-3-yl)benzyl)piperidin-4-yl)piperazin-1-yl)-5-(1H-pyrazol-3-yl)nicotinamide]
- Degradation of substrate protein BCR-ABL (substrate protein remaining %) [14]: A (A is defined as 0% ≤ substrate protein remaining % ≤ 80%)

Compound: Cc1ccc(C(=O)Nc2ccc(CN3CCN(Cc4ccc(C5CCC(=O)NC5=O)c(F)c4)CC3)c(C(F)(F)F)c2)cc1C#Cc1cnc2cccnn12 (stereo not shown) [GT-03937, N-(4-((4-(4-(2,6-dioxopiperidin-3-yl)-3-fluorobenzyl)piperazin-1-yl)methyl)-3-(trifluoromethyl)phenyl)-3-(imidazo[1,2-b]pyridazin-3-ylethynyl)-4-methylbenzamide]
- IC50 [15]: 100 to 500 nM
- IC50 [8]: 50 to 100 nM
- IC50 [9, 17]: 100 to 500 nM
- IC50 [10]: 50 to 100 nM
- IC50 [16]: 50 to 100 nM
- Degradation of substrate protein BCR-ABL (substrate protein remaining %) [14]: A (A is defined as 0% ≤ substrate protein remaining % ≤ 80%)
- IC50 [13]: 50 to 100 nM

Compound: O=C1CCC(c2ccc(CN3CCC(N4CCN(c5ncc(C(=O)Nc6ccc(OC(F)(F)Cl)cc6)cc5-c5cc[nH]n5)CC4)CC3)cc2F)C(=O)N1 (stereo not shown) [GT-04059, N-(4-(chlorodifluoromethoxy)phenyl)-6-(4-(1-(4-(2,6-dioxopiperidin-3-yl)-3-fluorobenzyl)piperidin-4-yl)piperazin-1-yl)-5-(1H-pyrazol-3-yl)nicotinamide]
- IC50 [8]: 100 to 500 nM
- IC50 [9, 17]: 500 to 1000 nM
- Degradation of substrate protein BCR-ABL (substrate protein remaining %) [14]: A (A is defined as 0% ≤ substrate protein remaining % ≤ 80%)
